Results reported in PubChem BioAssay AID1963837 (Molecular Pharmacology Branch, DTP, NCI, 2024).

System: 843126-344-R-J1-PDC complex spheroid viability
Assay: Anticancer human tumor 843126-344-R-J1-PDC patient-derived melanoma cell line growth inhibition [POLQ]
Conditions: for IC50: curve of first compound; for viability, T/C: stronger effect = lower value
In short: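 Patient-derived tumour cells were co-cultured with HUVEC and mesenchymal stem cells as multicellular spheroids at 37 °C. They were treated with POLQ inhibitors (novobiocin, ART-558, RP6685) alone or combined with other agents. Top concentrations were at or near clinical Cmax (otherwise 10 microM; SN-38 at 1 microM), decreasing in half-log steps.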

[1] = second compound 0.0316 µM, first compound 0.0316 µM
[2] = second compound 0.0316 µM, first compound 0.1 µM
[3] = second compound 0.0316 µM, first compound 0.316 µM
[4] = second compound 0.0316 µM, first compound 1 µM
[5] = second compound 0.0316 µM, first compound 3.16 µM
[6] = second compound 0.0316 µM, first compound 10 µM
[7] = second compound 0.1 µM, first compound 0.0316 µM
[8] = second compound 0.1 µM, first compound 0.1 µM
[9] = second compound 0.1 µM, first compound 0.316 µM
[10] = second compound 0.1 µM, first compound 1 µM
[11] = second compound 0.1 µM, first compound 3.16 µM
[12] = second compound 0.1 µM, first compound 10 µM
[13] = second compound 0.316 µM, first compound 0.0316 µM
[14] = second compound 0.316 µM, first compound 0.1 µM
[15] = second compound 0.316 µM, first compound 0.316 µM
[16] = second compound 0.316 µM, first compound 1 µM
[17] = second compound 0.316 µM, first compound 3.16 µM
[18] = second compound 0.316 µM, first compound 10 µM
[19] = second compound 1 µM, first compound 0.0316 µM
[20] = second compound 1 µM, first compound 0.1 µM
[21] = second compound 1 µM, first compound 0.316 µM
[22] = second compound 1 µM, first compound 1 µM
[23] = second compound 1 µM, first compound 3.16 µM
[24] = second compound 1 µM, first compound 10 µM
[25] = second compound 3.16 µM, first compound 0.0316 µM
[26] = second compound 3.16 µM, first compound 0.1 µM
[27] = second compound 3.16 µM, first compound 0.316 µM
[28] = second compound 3.16 µM, first compound 1 µM
[29] = second compound 3.16 µM, first compound 3.16 µM
[30] = second compound 3.16 µM, first compound 10 µM
[31] = second compound 10 µM, first compound 0.0316 µM
[32] = second compound 10 µM, first compound 0.1 µM
[33] = second compound 10 µM, first compound 0.316 µM
[34] = second compound 10 µM, first compound 1 µM
[35] = second compound 10 µM, first compound 3.16 µM
[36] = second compound 10 µM, first compound 10 µM
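For viability, T/C in this document: spheroids exposed to drugs for seven days before readout.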

Structure (SMILES): C#Cc1c(F)ccc2cc(O)cc(-c3ncc4c(N5CC6CCC(C5)N6)nc(OCC56CCCN5CC(F)C6)nc4c3F)c12 (stereo unspecified) + Nc1ccc(C#CCN(C(=O)Cc2ncc(C(F)(F)F)cc2C(F)(F)F)c2ccc(F)cc2)nn1
- IC50 (second compound 0.0316 µM): > 10 µM
- IC50 (second compound 0.1 µM): > 10 µM
- IC50 (second compound 0.316 µM): > 10 µM
- IC50 (second compound 1 µM): > 10 µM
- IC50 (second compound 3.16 µM): > 10 µM
- IC50 (second compound 10 µM): > 10 µM
- viability, T/C [1]: 87.4%
- viability, T/C [2]: 95.1%
- viability, T/C [3]: 99.8%
- viability, T/C [4]: 88.7%
- viability, T/C [5]: 121%
- viability, T/C [6]: 76.5%
- viability, T/C [7]: 106%
- viability, T/C [8]: 110%
- viability, T/C [9]: 96.7%
- viability, T/C [10]: 108%
- viability, T/C [11]: 103%
- viability, T/C [12]: 84.5%
- viability, T/C [13]: 100%
- viability, T/C [14]: 91.4%
- viability, T/C [15]: 84.5%
- viability, T/C [16]: 110%
- viability, T/C [17]: 95.1%
- viability, T/C [18]: 90.8%
- viability, T/C [19]: 107%
- viability, T/C [20]: 91.2%
- viability, T/C [21]: 91.2%
- viability, T/C [22]: 117%
- viability, T/C [23]: 109%
- viability, T/C [24]: 88.8%
- viability, T/C [25]: 89.1%
- viability, T/C [26]: 84.2%
- viability, T/C [27]: 108%
- viability, T/C [28]: 94.5%
- viability, T/C [29]: 97.6%
- viability, T/C [30]: 82.6%
- viability, T/C [31]: 95.3%
- viability, T/C [32]: 83.4%
- viability, T/C [33]: 86.5%
- viability, T/C [34]: 83.6%
- viability, T/C [35]: 85.8%
- viability, T/C [36]: 79.4%

Structure (SMILES): CC1COCCN1c1cc(C2(O)CC3CCC(C2)O3)c2cnn(-c3ccn[nH]3)c2n1 (stereo unspecified) + Nc1ccc(C#CCN(C(=O)Cc2ncc(C(F)(F)F)cc2C(F)(F)F)c2ccc(F)cc2)nn1
- IC50 (second compound 0.0316 µM): 0.39 µM
- IC50 (second compound 0.1 µM): 0.435 µM
- IC50 (second compound 0.316 µM): 0.369 µM
- IC50 (second compound 1 µM): 0.312 µM
- IC50 (second compound 3.16 µM): 0.344 µM
- IC50 (second compound 10 µM): 0.21 µM
- viability, T/C [1]: 82.7%
- viability, T/C [2]: 65.4%
- viability, T/C [3]: 54.9%
- viability, T/C [4]: 37.2%
- viability, T/C [5]: 29.7%
- viability, T/C [6]: 20.2%
- viability, T/C [7]: 74.5%
- viability, T/C [8]: 79.2%
- viability, T/C [9]: 51.6%
- viability, T/C [10]: 37.6%
- viability, T/C [11]: 31.9%
- viability, T/C [12]: 22%
- viability, T/C [13]: 73.2%
- viability, T/C [14]: 69.9%
- viability, T/C [15]: 49.1%
- viability, T/C [16]: 36.5%
- viability, T/C [17]: 28%
- viability, T/C [18]: 17.9%
- viability, T/C [19]: 85.9%
- viability, T/C [20]: 64.7%
- viability, T/C [21]: 48.5%
- viability, T/C [22]: 38.8%
- viability, T/C [23]: 28.7%
- viability, T/C [24]: 18.7%
- viability, T/C [25]: 79.1%
- viability, T/C [26]: 70.1%
- viability, T/C [27]: 46.6%
- viability, T/C [28]: 38.6%
- viability, T/C [29]: 29.1%
- viability, T/C [30]: 19.6%
- viability, T/C [31]: 71.5%
- viability, T/C [32]: 56.7%
- viability, T/C [33]: 47.8%
- viability, T/C [34]: 33%
- viability, T/C [35]: 26.7%
- viability, T/C [36]: 20.1%

Structure (SMILES): O=C(Nc1ccc(O)c(NS(=O)(=O)c2ccc(F)cc2)c1)c1ccc(-c2ccccc2)cc1 + Nc1ccc(C#CCN(C(=O)Cc2ncc(C(F)(F)F)cc2C(F)(F)F)c2ccc(F)cc2)nn1
- IC50 (second compound 0.0316 µM): > 10 µM
- IC50 (second compound 0.1 µM): > 10 µM
- IC50 (second compound 0.316 µM): > 10 µM
- IC50 (second compound 1 µM): > 10 µM
- IC50 (second compound 3.16 µM): > 10 µM
- IC50 (second compound 10 µM): > 10 µM
- viability, T/C [1]: 82.5%
- viability, T/C [2]: 94.9%
- viability, T/C [3]: 91.8%
- viability, T/C [4]: 80.5%
- viability, T/C [5]: 82.2%
- viability, T/C [6]: 73.6%
- viability, T/C [7]: 91.6%
- viability, T/C [8]: 102%
- viability, T/C [9]: 82.2%
- viability, T/C [10]: 85.4%
- viability, T/C [11]: 89.1%
- viability, T/C [12]: 64.8%
- viability, T/C [13]: 100%
- viability, T/C [14]: 92.5%
- viability, T/C [15]: 98.8%
- viability, T/C [16]: 84.3%
- viability, T/C [17]: 96.3%
- viability, T/C [18]: 61.5%
- viability, T/C [19]: 98.3%
- viability, T/C [20]: 97.1%
- viability, T/C [21]: 81.3%
- viability, T/C [22]: 90%
- viability, T/C [23]: 82.2%
- viability, T/C [24]: 67.8%
- viability, T/C [25]: 92%
- viability, T/C [26]: 91.4%
- viability, T/C [27]: 89.5%
- viability, T/C [28]: 86.1%
- viability, T/C [29]: 78.8%
- viability, T/C [30]: 67.3%
- viability, T/C [31]: 82.3%
- viability, T/C [32]: 74.1%
- viability, T/C [33]: 86.9%
- viability, T/C [34]: 72.4%
- viability, T/C [35]: 80.6%
- viability, T/C [36]: 55.4%
